Reference: PubChem BioAssay (NCI)
Several values for one entry are separate records, joined by “and”; a condition that tells them apart may be missing. Equal entries are not always repeated.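 Method: 48-hour compound exposure of cells in 96-well plates, five concentrations, linear interpolation of endpoints. Here, GI50 denotes the concentration required for 50% inhibition of growth. TGI is the concentration that stops growth completely.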

What was measured:
Assay in all cases: inhibition of tumour cell growth, NCI panel, 48 h
HT29 colon = tested on: HT29 colon
K-562 leukemia = tested on: K-562 leukemia
KM12 colon = tested on: KM12 colon
HOP-92 NSCLC = tested on: HOP-92 NSCLC
SK-MEL-2 melanoma = tested on: SK-MEL-2 melanoma
ACHN renal = tested on: ACHN renal
BT-549 breast = tested on: BT-549 breast
RXF 393 renal = tested on: RXF 393 renal
SR leukemia = tested on: SR leukemia
OVCAR-8 ovarian = tested on: OVCAR-8 ovarian

Row | Compound | GI50 (HT29 colon) [µM] | TGI (HT29 colon) [µM] | GI50 (K-562 leukemia) [µM] | TGI (K-562 leukemia) [µM] | GI50 (KM12 colon) [µM] | TGI (KM12 colon) | GI50 (HOP-92 NSCLC) [µM] | TGI (HOP-92 NSCLC) [µM] | GI50 (SK-MEL-2 melanoma) [µM] | TGI (SK-MEL-2 melanoma) [µM] | GI50 (ACHN renal) [µM] | TGI (ACHN renal) [µM] | GI50 (BT-549 breast) [µM] | TGI (BT-549 breast) | GI50 (RXF 393 renal) [µM] | TGI (RXF 393 renal) [µM] | GI50 (SR leukemia) [µM] | TGI (SR leukemia) [µM] | GI50 (OVCAR-8 ovarian) [µM] | TGI (OVCAR-8 ovarian) [µM]
1 | O=P(CCCCP(=O)(c1ccccc1)c1ccccc1)(c1ccccc1)c1ccccc1.[Cl][Sn]([Cl])([c]1ccccc1)[c]1ccccc1 | 1.89 | 4.01 | 0.444 | > 100 | 3.05 | 10.5 µM | 1.56 | 3.18 | 1.74 | 3.39 | 1.86 | 3.53 | 1.79 | 3.86 µM | 1.38 | 3.13 | 1.78 | > 100 | 2.3 | 6.28
2 | COc1cc(NC(=O)CSc2nc3ccc(C)cc3c(=O)n2Cc2ccccc2)cc(OC)c1OC | > 100 | > 100 | > 100 | > 100 | 29.9 | > 100 µM |  |  | 3.38 | 10.6 | 3.49 | > 100 | 2.98 | 20 µM | 2.24 | 8.23 | 52.7 | > 100 | 4.42 | > 100
3 | C=C(C)[C@@H]1CC[C@]2(C)[C@H](CC=C3[C@@H]4[C@@H](C)[C@H](C)CC[C@]4(C(N)=O)CC[C@]32C)[C@@]1(C)CCC#N | 3.34 | 21.1 | 3.38 | > 100 | 3.47 | 23.2 µM | 2.57 | 9.05 | 6.98 | 23.2 | 3.37 | > 100 | 4.4 | 18 µM | 3.33 | 11.4 | 2.58 | 9.48 | 5.38 | 27.5
4 | CCC[CH2][Sn]([CH2]CCC)([CH2]CCC)[O]C(=O)c1ccc(Cl)cc1Cl | 0.125 | 0.283 | 0.263 | 1.02 | 0.139 | 0.283 µM | 0.102 | 0.301 | 0.149 | 0.333 | 0.171 | 0.34 | 0.119 | 0.251 µM | 0.151 | 0.321 |  |  | 0.183 | 0.373
5 | CC(=O)OCC(=O)[C@@]12OC(C)(C)O[C@@H]1C[C@H]1[C@@H]3CC=C4C[C@@H](O)CC[C@]4(C)[C@H]3CC[C@@]12C |  | > 100 |  | > 100 |  | > 100 µM |  |  |  | > 100 |  | > 100 |  | 96.4 µM |  | 61.4 |  | > 100 |  | > 100
6 | CC(C)COCC(CN(Cc1ccccc1)c1ccccc1)N1CCCC1 (configuration not stated) | 1.46 | 4.17 | 3.43 | 10.3 | 3.54 | 13.7 µM | 1.66 | 6.88 | 2.73 | 8 | 4.99 | 17 | 5.75 | 19 µM | 1.76 | 6.37 | 2.08 | 5.34 | 3.75 | 14.9
7 | N#CC1=C(N)Oc2c(sc3c(Br)cccc23)C1c1ccc(Br)cc1 (configuration not stated) | 0.315 | 1.21 | 0.137 | 3.16 | 0.434 | 10.2 µM | 1.43 | 5.56 | 0.434 | 4 | 0.912 | 9.37 | 1.32 | 12.7 µM | 1.97 | 6.18 | 0.208 | 5.91 | 0.588 | 3.09
8 | FC(F)(F)c1ccc(C#Cc2ccccc2C#Cc2ccccc2)cc1 | 42.6 | > 100 | 34.2 | 89.5 | 31.4 | > 100 µM |  |  | 29.2 | 80 | 40.9 | > 100 | > 100 | > 100 µM | 23.4 | 65.6 |  |  | 59.2 | > 100
9 | O=C1C=CC[C@H](/C=C/c2ccccc2)O1 | 1.88 | 23.9 |  | > 100 | 4.06 | 17.8 µM | 1.19 | 18.3 | 6.57 | 34.2 | 4.04 | 16.6 | 2.28 | 19.3 µM | 5.23 | > 100 | 2.78 | > 100 | 6.03 | > 100
10 | O=C(c1ccccc1)C(Br)C(Br)c1cccc([N+](=O)[O-])c1 (configuration not stated) | 3.45 | > 100 |  |  | 1.61 | 3.05 µM | 1.55 | 3.89 | 3.03 | 8.48 | 1.46 | 2.77 | 2 | 3.65 µM | 1.59 | 2.94 | 1.2 | 4.53 | 3.35 | 12.7
11 | CCCCCCCCCCCCOC1C(C(COC2OC(C3COC(C)(C)O3)C3OC(C)(C)OC23)NC(=O)NS(=O)(=O)c2ccccc2)OC2OC(C)(C)OC21 (configuration not stated) | 4.32 | 16.4 | 2.57 | 16.1 | 5.15 | 31.5 µM | 2.39 | 8.52 | 3.29 | 9.57 | 4.22 | 15.2 | 3.61 | 13.1 µM | 3.02 | 7.47 |  |  | 3.35 | 23.9
12 | O=S(=O)(c1cccc2c(Cl)cccc12)N1CCCNCC1 | 3.62 | 18.1 | 12.7 | 25.3 | 15 | 28.2 µM | 11 | 25.8 | 17.6 | 34.3 | 14.4 | 27.4 | 19.8 | 36.4 µM | 2.88 | 22.4 |  |  | 14.1 | 31.4
13 | Cc1ccc2c(c1)C(C)Cc1c(Cl)ncnc1N2C (configuration not stated) | 3.48 | 47.2 | 3.47 | > 100 | 2.12 | 7.98 µM | 2.92 | 8.5 | 3.03 | 8.1 | 3.7 | > 100 | 3 | 9.74 µM | 2.87 | 8.62 | 3.53 | > 100 | 3.77 | 23.8
14 | Nc1c([N+](=O)[O-])cc2c3c(cccc13)CC2 |  | > 100 |  | > 100 |  | > 100 µM |  | > 100 |  | > 100 |  | > 100 |  | > 100 µM |  | 74.2 |  | > 100 |  | > 100
15 | CN1C(=O)C(CC(=O)O)NC1=S (configuration not stated) |  | > 100 |  | > 100 |  | > 100 µM |  | > 100 |  | > 100 |  | > 100 |  | > 100 µM |  | > 100 |  | > 100 |  | > 100
16 | CC(C)c1c(O)ccc2c1CCC1C(C)(C)CCCC21C (configuration not stated) |  | 32.1 |  | 50 |  | 42.7 µM |  | 32.8 |  | 31.9 |  | 30.8 |  | 32.8 µM |  | 29.3 |  | 40.5 |  | 31.7
17 | Cc1ccc2nc(-c3ccccc3)c(N=O)n2c1 |  | > 100 |  | > 100 |  | > 100 µM |  | > 100 |  | > 100 |  | > 100 |  | > 100 µM |  | > 100 |  |  |  | > 100
18 | O=C(O)c1cc(-c2ccncc2)nc2ccccc12 |  | > 100 |  | > 100 |  | > 100 µM |  | > 100 |  | > 100 |  | > 100 |  | > 100 µM |  | > 100 |  | > 100 |  | > 100
19 | Nc1nc(N)c2c(n1)NC(c1ccc(F)cc1)C1CCc3ccccc3C1=N2 (configuration not stated) | 3.84 | 15 |  |  | 4.93 | 17 µM | 1.17 | 6.59 | 5.73 | 19.6 | 4.96 | 17.8 | 3.89 | 16.6 µM | 5.48 | 20 | 1.65 | 4.14 | 8.07 | 27
20 | COc1ccc(/C(=N\O)c2cc(C)c(OC)c(C)c2)cc1O | 0.0446 | 11.8 |  |  | < 0.01 | > 100 µM | 0.41 | > 100 | 0.0328 | > 100 | < 0.01 | > 100 | 0.0261 | > 100 µM | < 0.01 | > 100 | < 0.01 | > 100 | 0.0352 | 71.6
21 | O=Cc1ccccc1B(O)O |  | > 100 |  | > 100 |  | > 100 µM |  |  |  | > 100 |  | > 100 |  | 95.9 µM |  | > 100 |  | 2.08 |  | > 100
22 | O=c1[nH]c(=O)c2cc(C3CC(O)C(CO)O3)ccc2[nH]1 (configuration not stated) | > 100 | > 100 | > 100 | > 100 |  |  | > 100 | > 100 | > 100 | > 100 |  |  | > 100 | > 100 µM | > 100 | > 100 |  |  | > 100 | > 100
23 | CNCCNc1c2c(c(NCCNC)c3[nH]ccc13)C(=O)c1ccccc1C2=O | 1.35 | 5.23 | 0.126 | > 100 | 0.0892 | 0.374 µM | 0.418 | 2.37 | 0.581 | 2.55 | 0.0434 | 0.306 | 4 | 8.21 µM | 0.214 | 0.752 |  |  | 0.0578 | 0.393
24 | O=C(Nc1ccc2[nH]c(=S)sc2c1)Nc1ccccc1F | 44.3 | > 100 | 28.6 | > 100 | 24.7 | > 100 µM |  |  | 26.7 | > 100 | 37.4 | > 100 | 32 | > 100 µM | 54.5 | > 100 | 17.5 | > 100 | 56.5 | > 100
25 | CNC(=O)CC1NC(=O)c2csc(n2)-c2ccc(-c3nc(C4=NC(C(=O)N5CCCC5C(N)=O)CO4)cs3)nc2-c2csc(n2)-c2csc(n2)C(C(C)C)NC(=O)CNC(=O)c2csc(n2)C(C(C)C)NC(=O)c2nc1sc2C (configuration not stated) | < 0.001 |  | > 25 | > 25 | > 25 | 4.34 µM and > 25 µM | > 25 | > 25 |  |  | > 25 | > 25 | > 25 | 4.5 µM and > 25 µM | > 25 | > 25 | < 0.001 |  | > 25 | > 25
26 | COc1cccc2c1C(=O)c1c(O)c3c(c(O)c1C2=O)C[C@@](O)(C(=O)CO)C[C@@H]3O[C@H]1C[C@H](N)[C@@H](O)[C@H](C)O1 |  | 7.75 | 0.147 | 5.05 | 0.502 | 18.2 µM | 0.0743 | 0.697 | 0.514 | 3.09 |  |  | 0.128 | 0.474 µM | 0.205 | 1.02 | 0.0137 | 1.07 | 0.256 | 19.5
27 | COc1ccc(NC(=O)COCCOCCNC[C@@H]2C(=O)O[C@H]3[C@H]2CC/C(COC(=O)OC/C2=C/CC[C@@]4(C)O[C@H]4[C@H]4OC(=O)[C@@H](CN(C)C)[C@@H]4CC2)=C\CC[C@@]2(C)O[C@@H]32)c(O)c1C(N)=O | 1.71 | 5.77 |  |  | 9.72 | 22.5 µM | 1.71 | 6.93 | 9.69 | 20.3 | 0.987 | 2.21 | 6.19 | 12.9 µM | 1.3 | 3.59 | 1.99 | 9.28 | 3.56 | 12
28 | Cc1cc2[nH]c(=O)c3c4ccccc4cn3c2cc1C | 6.09 | > 100 |  |  | 7.06 | 21.5 µM | 15.4 | 30.2 | 18.1 | 34.8 | 10.2 | 23.5 | 19.6 | 40.9 µM | 12 | 27.4 | 2.6 | 5.75 | 7.07 | 25.9
